Data taken from US20060154904A1, “Betulinol derivatives as anti-HIV agents” (Cornell Research Foundation, Inc., priority 2004, published 2006).
Where two headings read alike, the source gives them in different places.

Legend:
AZT-resistant HIV strain = assay: anti-HIV activity against AZT-resistant patient isolates in MT-2 cells; assay type: cell-based
Source text: These isolates were used to infect MT-2 cells in vitro.

HIV-1 IIIB isolate = assay: HIV-1 inhibitory effect, p24 antigen capture ELISA in acutely infected 174XCEM cells; assay type: cell-based; conditions: for inhibition of HIV infection (FIG. 7) / anti-HIV-1 activity (p24 OD, FIG. 6): 1 μg/ml; for anti-HIV-1 activity (p24 OD, FIG. 6): 4 days, compared with other betulinol derivatives; for dose-related anti-HIV effect (FIG. 8): doses of 0.5, 1 .5, and 2 μg/ml
another HIV-1 isolate = assay: effect on 174XCEM cells chronically infected with another HIV-1 isolate; assay type: cell-based; conditions: single dose 1 μg/ml
Procedure: Agents were also evaluated for an effect on 174XCEM cells chronically infected with another HIV-1 isolate.

[1] = system: Human T-B hybridoma cell line 174XCEM; assay: cell viability by trypan blue dye exclusion; assay type: cell-based; conditions: for effect on total cell number or cell viability: trypan blue at four days and seven days; for cell toxicity: doses of 0.5, 1 .5, and 2 μg/ml
Source text: Dimethyl sulfoxide (“DMSO”) buffer was used as “no virus” control.

[2] = solubility in DMSO diluted with culture medium, GC against standard curve; assay type: physicochemical
Procedure: The residue was dissolved in chloroform analyzed on GC.
Ethyl ether was then evaporated.

[3] = solubilization in PBS containing human γ-globulin, human albumin and ethanol; assay type: physicochemical; conditions: 1 × 10^−3 mol/L
[4] = solubility in human serum; assay type: physicochemical; conditions: 1.34 mg in 31 μL ethanol and 700 μL human serum
[5] = tolerability of solubilized drug in mice with prostate cancer cell xenografts; assay type: in vivo; conditions: final concentration 22% ethanol and 2×10^−3 mol per liter of betulonic acid
cells = conditions: cited from earlier work
HIV = conditions: Sun et al., J. Med. Chem. 41:4648-4657 (1998); cited from earlier work
[6] = culture medium containing 20% DMSO, calculated from amount and volume

SMILES: Cc1cn([C@H]2C[C@H](N=[N+]=[N-])[C@@H](CO)O2)c(=O)[nH]c1=O [AZT, 3′-azido-3′-deoxythymidine, reference compound]
- inhibition in the HIV infection (AZT-resistant HIV strain; day 8): ineffective

SMILES: C=C(C)C1CCC2(CO)CC[C@]3(C)[C@H](CC[C@@H]4[C@@]5(C)CCC(O)C(C)(C)[C@@H]5CC[C@]43C)C12 (stereo partly drawn) [betulinol, lup-20(29)-ene-3β, 28-diol]
- inhibition of HIV infection (FIG. 7) (HIV-1 IIIB isolate): no effect
- dose-related anti-HIV effect (FIG. 9) (HIV-1 IIIB isolate; doses 1.3, 1.6, and 2 μg/ml): increasing anti-HIV effect
- inhibition in chronically infected cells (another HIV-1 isolate): minimal effect

SMILES: C=C(C)[C@@H]1CC[C@]2(CO)CC[C@]3(C)[C@H](CC[C@@H]4[C@@]5(C)CC[C@H](OC(C)=O)C(C)(C)[C@@H]5CC[C@]43C)[C@@H]12 [3-acetoxy betulin]
- anti-HIV-1 activity (p24 OD, FIG. 6) (HIV-1 IIIB isolate): superior
- effect on total cell number or cell viability [1]: no effect

SMILES: C=C(C)C1CCC2(C(=O)O)CC[C@]3(C)[C@H](CC[C@@H]4[C@@]5(C)CCC(=O)C(C)(C)[C@@H]5CC[C@]43C)C12 (stereo partly drawn) [betulonic acid]
- amount of betulonic acid dissolved ([2]; out of 3 mg, 1% DMSO in culture medium containing 10% FBS, nominal 0.5 mg/mL): 0.4 mg
- Observation ([3]; γ-globulin in PBS 0 mL, albumin in PBS 2.50 mL, ethanol 280 μL): Complete
- Observation ([3]; γ-globulin in PBS 0.32 mL, albumin in PBS 2.85 mL, ethanol 352 μL): Clear
- Observation ([3]; γ-globulin in PBS 0.69 mL, albumin in PBS 2.07 mL, ethanol 308 μL): Almost Clear
- Observation ([3]; γ-globulin in PBS 1.48 mL, albumin in PBS 0.49 mL, ethanol 220 μL): Cloudy
- Observation ([3]; γ-globulin in PBS 1.48 mL, albumin in PBS 1.48 mL, ethanol 330 μL): Little Cloudy
- Observation ([3]; γ-globulin in PBS 2.50 mL, albumin in PBS 0 mL, ethanol 280 μL): Suspension
- Observation [4]: Clear Solution
- tolerability [5]: well tolerated
- inhibition in the HIV infection (AZT-resistant HIV strain; day 5): 56%
- inhibition in the HIV infection (AZT-resistant HIV strain; day 8): 44%
- cytotoxicity (cells): cytotoxic

SMILES: C=C(C)C1CCC2(C(=O)NCCCCC(NC(=O)OC(C)(C)C)C(=O)O)CC[C@]3(C)[C@H](CC[C@@H]4[C@@]5(C)CCC(=O)C(C)(C)[C@@H]5CC[C@]43C)C12 (stereo partly drawn) [Boc-Monomer]
- Concentration of drug (mg/mL) [2]: 0.7 mg/mL
- tolerability [5]: well tolerated

SMILES: C=C(C)C1CCC2(C(=O)NCCCCC(NC(=O)C(CCCCNC(=O)C34CCC(C(=C)C)C3[C@@H]3CC[C@H]5[C@]6(C)CCC(=O)C(C)(C)[C@H]6CC[C@]5(C)[C@@]3(C)CC4)NC(=O)OC(C)(C)C)C(=O)O)CC[C@]3(C)[C@H](CC[C@@H]4[C@@]5(C)CCC(=O)C(C)(C)[C@@H]5CC[C@]43C)C12 (stereo partly drawn) [Boc-Dimer]
- Concentration of drug (mg/mL) [2, 6]: 0.6 mg/mL
- Concentration of drug (mol/L) [2, 6]: 0.0005 mol/L

SMILES: C=C(C)[C@@H]1CC[C@]2(COC(C)=O)CC[C@]3(C)[C@H](CC[C@@H]4[C@@]5(C)CC[C@H](OC(C)=O)C(C)(C)[C@@H]5CC[C@]43C)[C@@H]12 [betulin diacetate]
- inhibition of HIV infection (FIG. 7) (HIV-1 IIIB isolate): 57%
- dose-related anti-HIV effect (FIG. 8) (HIV-1 IIIB isolate): Progressive increases in anti-HIV effect
- cell toxicity [1]: without cell toxicity
- inhibition in chronically infected cells (another HIV-1 isolate): 20%
- therapeutic index (HIV): low therapeutic index

SMILES: C=C(C)[C@@H]1CC[C@]2(C=O)CC[C@]3(C)[C@H](CC[C@@H]4[C@@]5(C)CCC(=O)C(C)(C)[C@@H]5CC[C@]43C)[C@@H]12 [betulone aldehyde]
- inhibition of HIV infection (FIG. 7) (HIV-1 IIIB isolate): 37%
- dose-related anti-HIV effect (FIG. 8) (HIV-1 IIIB isolate): Progressive increases in anti-HIV effect
- cell toxicity [1]: without cell toxicity
- inhibition in chronically infected cells (another HIV-1 isolate): minimal effect

SMILES: C=C(C)C1CCC2(COC)CCC3(C)C(CCC4C5(C)CCC(OC)C(C)(C)C5CCC43C)C12 (stereo not drawn) [betulin dimethyl ether]
- anti-HIV-1 activity (p24 OD, FIG. 6) (HIV-1 IIIB isolate): superior
- effect on total cell number or cell viability [1]: no effect

SMILES: C=C(C)[C@@H]1CC[C@]2(COC(C)=O)CC[C@]3(C)[C@H](CC[C@@H]4[C@@]5(C)CC[C@H](O)C(C)(C)[C@@H]5CC[C@]43C)[C@@H]12 [28-acetoxy betulin]
- anti-HIV-1 activity (p24 OD, FIG. 6) (HIV-1 IIIB isolate): superior
- dose-related anti-HIV-1 activity (FIG. 10) (HIV-1 IIIB isolate; doses 0.5, 1, 1.5, and 2 μg/ml): comparable anti-HIV-1 activity
- effect on total cell number or cell viability [1]: no effect
